We go through two compounds from patent US6551790B2, “Process for glucuronidation screening” (PanVera LLC, priority 1998, dated 2003).

The structures appear in SMILES notation. Residue numbers refer to the chain shown, from its start. Where two headings read alike, the source gives them in different places.

One data set has as its target T1, UGT2B7 (Homo sapiens, UniProt P16662).
T1 sequence (P16662 24-529): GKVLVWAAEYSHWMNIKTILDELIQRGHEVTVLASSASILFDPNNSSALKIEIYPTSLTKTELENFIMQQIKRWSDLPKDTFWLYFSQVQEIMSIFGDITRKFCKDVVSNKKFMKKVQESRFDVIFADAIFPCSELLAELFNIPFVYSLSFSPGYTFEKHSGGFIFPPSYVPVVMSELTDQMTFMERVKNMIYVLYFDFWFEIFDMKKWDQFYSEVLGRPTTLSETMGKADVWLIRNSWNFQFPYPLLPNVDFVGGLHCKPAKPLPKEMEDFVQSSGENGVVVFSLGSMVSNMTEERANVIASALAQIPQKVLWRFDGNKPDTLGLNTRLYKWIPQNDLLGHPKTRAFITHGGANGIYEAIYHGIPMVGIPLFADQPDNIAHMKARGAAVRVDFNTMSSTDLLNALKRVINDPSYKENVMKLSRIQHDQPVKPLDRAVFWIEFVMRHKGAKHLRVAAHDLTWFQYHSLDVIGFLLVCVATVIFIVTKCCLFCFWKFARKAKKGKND
The text has this: Heterologous expression and characterization of full length UGT 2B7.
Stable UGT2B7 cell lines were established from embryonic human kidney cells (HK293 cells) and microsomal membrane fractions from these cells were used to assess the properties of the recombinant enzyme. […] The specificity of the purified UGT2B7 will be assessed by determining overall catalytic efficiency with each aglycone substrate, as reflected in a ratio of the two fundamental Michaelis kinetic parameters, Vmax/Km. Reaction rates will be determined over a range of substrate concentrations and nonlinear regression will be used to fit the UGT rate data to velocity versus substrate curves (Graph Pad, Prism). Vmax/Km values will be determined and compared with those determined with the enzyme isolated from HK293 cells (Table 1). […] This ratio will be determined for the purified enzyme using HPLC-based methods for separation and quantification of the two glucuronides.

For data set [1], the target named is T2, UGT2B7H(268) (Homo sapiens, UniProt P16662, Y268H).
T2 sequence (P16662 24-529 Y268H): T1 sequence (P16662 24-529) with Y245H
The conditions noted are these: human.

The target in data set [2] is T3, UGT2B7Y(268) (Homo sapiens, UniProt P16662).
T3 sequence (P16662 24-529): T1 sequence (P16662 24-529)
Briefly: Kinetics of glucuronidation, membrane preparations of HK293 cells stably expressing UGT2B7Y(268).

The target in data set [3] is T2, UGT2B7H(268). The data set is described as follows: Kinetics of glucuronidation, membrane preparations of HK293 cells stably expressing UGT2B7H(268).
For data set [4], the target named is T2, UGT2B7H(268). The data set is described as follows: in vitro.
The target of data set [5] is T3, UGT2B7Y(268). Briefly: in vitro.
Data set [6] addresses T3, UGT2B7Y(268). Particulars: human.
Data set [7] addresses T2, UGT2B7H(268). Particulars: reported by another laboratory; cited from earlier work.
In data set [8] the target is T3, UGT2B7Y(268). The conditions noted are these: reported by one laboratory; cited from earlier work.

A word on the Km: it is the substrate concentration at which the rate is half of its maximum.

Regarding `COc1ccc2c3c1O[C@H]1[C@@H](O)C=C[C@H]4[C@@H](C2)N(C)CC[C@@]341` [codeine], on UGT2B7, the “Glucuronidation activity towards opioids” value is on record as “demonstrated”. Further, on UGT2B7, the “conversion to the 6-O-glucuronide by UGT2B7” value is reported as “efficiently converted”. Further, the “efficiency ratio of glucuronidation, 3-OH to 6-OH” value at UGT2B7 (human, pH 7.7) fell in the range of 7 to 1. In addition, the Km was determined as 550 µM at UGT2B7H(268) [1], 791 µM on UGT2B7H(268) [4], 230 µM on UGT2B7Y(268) [5] and 360 µM on UGT2B7Y(268) [6]. The Vmax was 190, 40 pmol/min/mg protein at UGT2B7Y(268) [2] and 97, 110 pmol/min/mg protein at UGT2B7H(268) [3].
For `CC1CCC(C(C)C)C(O)C1` (centres unmarked) [menthol], the “activity toward glucuronide formation” value on UGT2B7H(268) [7] is “inactive”; at UGT2B7Y(268) [8], “active”.
